Laboratory results taken from patent US8455475B2 (Gruenenthal GmbH, priority 2009, dated 2013).

What was measured:
[1] = target: T1, human B1R (bradykinin receptor 1) (Homo sapiens, UniProt P46663); assay: FLIPR Ca2+ assay (Fluo-4) on CHO K1 cells stably transfected with the human B1R gene (hB1R cells): % inhibition at 10 μM / IC50, agonist Lys-Des-Arg9-bradykinin; format: cell-based; details: CHO-K1, human B1R
T1 construct: expressed in transfected cells; host or cells: CHO K1 cells
T1 sequence (P46663 1-353): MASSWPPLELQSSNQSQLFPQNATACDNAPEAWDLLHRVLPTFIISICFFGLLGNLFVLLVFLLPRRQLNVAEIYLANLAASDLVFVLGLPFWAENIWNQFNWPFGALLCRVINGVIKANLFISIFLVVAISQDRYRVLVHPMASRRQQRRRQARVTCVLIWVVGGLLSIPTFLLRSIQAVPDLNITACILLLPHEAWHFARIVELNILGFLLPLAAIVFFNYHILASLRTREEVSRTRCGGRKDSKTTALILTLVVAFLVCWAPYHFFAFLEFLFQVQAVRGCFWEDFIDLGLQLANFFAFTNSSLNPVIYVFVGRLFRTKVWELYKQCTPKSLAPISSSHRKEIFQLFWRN
In short: (§1)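 Stable CHO K1 lines, Fluo-4 dye, probenecid-containing buffer. Cpd 10 μM or dose range, 10–20 min, then EC80 agonist (h: Lys-Des-Arg9-BK; r: Des-Arg9-BK). Readout peak FC; % inhibition vs max; IC50 from n=2–3, N≥2.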

[2] = target: T2, rat B1R (bradykinin receptor 1) (Rattus norvegicus, UniProt P97583); assay: FLIPR Ca2+ assay (Fluo-4) on CHO K1 cells stably transfected with the B1R gene of the rat (rB1R cells): % inhibition at 10 μM / IC50, agonist Des-Arg9-bradykinin; format: cell-based; details: CHO-K1, rat B1R
T2 construct: expressed in transfected cells; host or cells: CHO K1 cells
T2 sequence (P97583 1-337): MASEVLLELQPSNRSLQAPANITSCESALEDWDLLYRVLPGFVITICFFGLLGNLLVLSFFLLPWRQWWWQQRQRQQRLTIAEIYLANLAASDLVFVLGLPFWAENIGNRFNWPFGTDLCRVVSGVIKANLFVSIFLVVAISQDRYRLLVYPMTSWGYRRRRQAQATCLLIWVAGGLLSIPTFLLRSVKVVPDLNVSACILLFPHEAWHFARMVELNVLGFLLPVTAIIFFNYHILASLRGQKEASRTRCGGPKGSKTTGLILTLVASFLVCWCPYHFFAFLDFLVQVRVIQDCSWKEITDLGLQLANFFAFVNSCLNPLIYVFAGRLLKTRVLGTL
In short: as §1

| inhibition at 10 µM [1] [%] | inhibition at 10 µM [2] [%] | Structure (SMILES) |
| --- | --- | --- |
| 99 | 101 | O=C(c1ccc2c(c1)C(N(C(=O)c1ccccc1Cl)C1CC1)CC2)N1CCC2(CC1)CCN(c1cccnc1)CC2 (stereo not shown) [Ind_CC-114, 2-chloro-N-cyclopropyl-N-[6-(9-pyridin-3-yl-3,9-diazaspiro[5.5]undecane-3-carbonyl)-2,3-dihydro-1H-inden-1-yl]-benzamide] |
| 22 | 64 | O=C(c1ccc2c(c1)C(N(C(=O)c1ccccc1Cl)C1CC1)CC2)N1CCC2(CC1)CCN(c1ccc(F)cc1)CC2 (stereo not shown) [Ind_CC-115, 2-chloro-N-cyclopropyl-N-[6-[9-(4-fluorophenyl)-3,9-diazaspiro[5.5]undecane-3-carbonyl]-2,3-dihydro-1H-inden-1-yl]-benzamide] |
| 68 | 77 | O=C(c1ccc2c(c1)C(N(C(=O)c1ccccc1Cl)C1CC1)CC2)N1CCC2(CCN(Cc3ccncc3)CC2)CC1 (stereo not shown) [Ind_CC-116, 2-chloro-N-cyclopropyl-N-[6-[9-(pyridin-4-yl-methyl)-3,9-diazaspiro[5.5]undecane-3-carbonyl]-2,3-dihydro-1H-inden-1-yl]-benzamide] |
| 100 | 103 | O=C(c1ccc2c(c1)C(N(C(=O)c1ccccc1Cl)C1CC1)CC2)N1CCC2(CCN(c3ccncc3)CC2)C1 (stereo not shown) [Ind_CC-118, 2-chloro-N-cyclopropyl-N-[6-(8-pyridin-4-yl-2,8-diazaspiro[4.5]decane-2-carbonyl)-2,3-dihydro-1H-inden-1-yl]-benzamide] |
| 99 | 104 | O=C(c1ccc2c(c1)C(N(C(=O)c1ccccc1Cl)C1CC1)CC2)N1CCC2(CC1)CCN(c1ccncc1)C2 (stereo not shown) [Ind_CC-119, 2-chloro-N-cyclopropyl-N-[6-(2-pyridin-4-yl-2,8-diazaspiro[4.5]decane-8-carbonyl)-2,3-dihydro-1H-inden-1-yl]-benzamide] |
| 56 | 99 | O=C(NC1CCCCc2ccc(C(=O)N3CCC4(CC3)CCN(c3ccncc3)CC4)cc21)c1ccccc1Cl (stereo not shown) [Ind_CC-120, 2-chloro-N-[3-(9-pyridin-4-yl-3,9-diazaspiro[5.5]undecane-3-carbonyl)-6,7,8,9-tetrahydro-5H-benzocyclohepten-5-yl]-benzamide] |
| 46 | 103 | O=C(NC1CCCCc2ccc(C(=O)N3CCC4(CC3)CCN(c3cccnc3)CC4)cc21)c1ccccc1Cl (stereo not shown) [Ind_CC-121, 2-chloro-N-[3-(9-pyridin-3-yl-3,9-diazaspiro[5.5]undecane-3-carbonyl)-6,7,8,9-tetrahydro-5H-benzocyclohepten-5-yl]-benzamide] |

| Structure (SMILES) | inhibition at 10 µM [1] [%] | inhibition at 10 µM [2] [%] |
| --- | --- | --- |
| CN(C)C1(c2ccc(F)cc2)CCC2(CCN(C(=O)c3ccc4c(c3)C(N(C(=O)c3ccccc3Cl)C3CC3)CC4)CC2)CC1 (stereo not shown) [Ind_CC-117, 2-chloro-N-cyclopropyl-N-[6-[9-dimethylamino-9-(4-fluorophenyl)-3-azaspiro[5.5]undecane-3-carbonyl]-2,3-dihydro-1H-inden-1-yl]-benzamide] | 56 | 77 |
